Consider 28 compounds from patent US20080161320A1, “FUSED BICYCLIC PYRIMIDINES AS PTK INHIBITORS CONTAINING A ZINC BINDING MOIETY” (priority 2006, published 2008).

Bounds are passed on as bounds.

Experiment [1] has as its system HDAC. The experiment is described as follows: HDAC fluorimetric assay kit (AK-500, Biomol), HeLa nuclear extract. The class given is biochemical. As to the method: HDAC inhibitors were screened using an HDAC fluorimetric assay kit (AK-500, Biomol, Plymouth Meeting, Pa.). […] Each assay was setup as follows: Defrosted all kit components and kept on ice until use. […] Prepared dilutions of Trichostatin A (TSA, positive control) and tested compounds in assay buffer (5× of final concentration). Diluted Fluor de Lys™ Substrate in assay buffer to 100 uM (50 fold=2× final). Diluted Fluor de Lys™ developer concentrate 20-fold (e.g. 50 μl plus 950 μl Assay Buffer) in cold assay buffer. Second, diluted the 0.2 mM Trichostatin A 100-fold in the 1× Developer (e.g. 10 μl in 1 ml; final Trichostatin A concentration in the 1× Developer=2 μM; final concentration after addition to HDAC/Substrate reaction=1 μM). Added Assay buffer, diluted trichostatin A or test inhibitor to appropriate wells of the microtiter plate. Added diluted HeLa extract or other HDAC sample to all wells except for negative controls.

For experiment [2], the target named is T1, human EGFR (Homo sapiens, UniProt P00533).
T1 construct: human EGFR (His672-Ala1210); GST (N); purchased Cell Signaling Technologies; host or cells: baculovirus expression system
T1 sequence (P00533 672-1210): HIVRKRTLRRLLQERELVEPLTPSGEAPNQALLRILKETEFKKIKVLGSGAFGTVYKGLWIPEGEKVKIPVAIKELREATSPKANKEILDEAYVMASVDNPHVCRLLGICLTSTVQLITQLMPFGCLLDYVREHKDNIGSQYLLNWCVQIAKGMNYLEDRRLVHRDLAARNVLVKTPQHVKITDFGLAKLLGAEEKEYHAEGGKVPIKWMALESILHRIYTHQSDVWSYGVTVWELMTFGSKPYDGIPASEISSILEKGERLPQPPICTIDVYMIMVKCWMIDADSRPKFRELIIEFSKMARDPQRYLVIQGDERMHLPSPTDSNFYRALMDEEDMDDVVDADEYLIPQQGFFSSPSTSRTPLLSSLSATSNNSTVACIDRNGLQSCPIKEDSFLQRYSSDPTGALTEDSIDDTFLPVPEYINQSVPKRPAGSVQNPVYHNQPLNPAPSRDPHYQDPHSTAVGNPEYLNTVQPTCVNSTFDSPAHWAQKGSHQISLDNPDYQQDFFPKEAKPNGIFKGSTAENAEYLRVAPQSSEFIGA
The experiment is described as follows: HTScan Receptor Kinase Assay, EGFR. Type of experiment: biochemical.

Experiment [3] addresses human VEGFR2 (Homo sapiens, UniProt P35968). The experiment is described as follows: HTScan Receptor Kinase Assay, VEGFR2.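 Further: recombinant GST-His-tagged human VEGFR2 kinase domain phosphorylating biotinylated gastrin precursor peptide, 30 min at room temperature, phosphotyrosine detected by Europium-labelled antibody time-resolved fluorescence.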
Description: (§1) The ability of compounds to inhibit receptor kinase (EGFR, HER2/ErbB2, and VEGFR2) activity was assayed using HTScan™ Receptor Kinase Assay Kits (Cell Signaling Technologies, Danvers, Mass.). […] VEGFR2 tyrosine kinase was produced using a baculovirus expression system from a construct containing a human VEGFR2 cDNA kinase domain (Asp805-Val1356) (GenBank accession No. AF035121) fragment amino-terminally fused to a GST-HIS6-Thrombin cleavage site. The proteins were purified by one-step affinity chromatography using glutathione-agarose. An anti-phosphotyrosine monoclonal antibody, P-Tyr-100, was used to detect phosphorylation of biotinylated substrate peptides (EGFR, Biotin-PTP1B (Tyr66); HER2/ErbB2, Biotinylated FLT3 (Tyr589); VEGFR2, Biotin-Gastrin Precursor (Tyr87).). […] Fluorescence was measured on a WALLAC Victor 2 plate reader and reported as relative fluorescence units (RFU). Data were plotted using GraphPad Prism (v4.0a) and IC50's calculated using a sigmoidal dose response curve fitting algorithm.
(§2) Each assay was setup as follows: Added 100 μl of 10 mM ATP to 1.25 ml 6 mM substrate peptide. Diluted the mixture with dH20 to 2.5 ml to make 2×ATP/substrate cocktail ([ATP]=400 mM, [substrate]=3 mM). Immediately transfer enzyme from −80° C. to ice. Allowed enzyme to thaw on ice. Microcentrifuged briefly at 4° C. to bring liquid to the bottom of the vial. Returned immediately to ice. […] Transfer 1.25 ml of DTT/Kinase buffer to enzyme tube to make 4× reaction cocktail ([enzyme]=4 ng/μL in 4× reaction cocktail). […] Incubated reaction plate at room temperature for 30 minutes. Added 50 μl/well Stop Buffer (50 mM EDTA, pH 8) to stop the reaction. Transferred 25 μl of each reaction and 75 μl dH2O/well to a 96-well streptavidin-coated plate and incubated at room temperature for 60 minutes. Washed three times with 200 μl/well PBS/T (PBS, 0.05% Tween-20). […] Added 100 μl/well primary antibody. Incubated at room temperature for 60 minutes. Washed three times with 200 μl/well PBS/T. Diluted Europium labeled anti-mouse IgG 1:500 in PBS/T with 1% BSA. Added 100 μl/well diluted antibody. Incubated at room temperature for 30 minutes. Washed five times with 200 μl/well PBS/T. Added 100 μl/well DELFIA® Enhancement Solution. Incubated at room temperature for 5 minutes.
For experiment [4], the target named is human HER2/ErbB2 (Homo sapiens, UniProt P04626). The experiment is described as follows: HTScan Receptor Kinase Assay, HER2/ErbB2.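 Further: europium time-resolved fluorescence detection of anti-phosphotyrosine antibody binding to biotinylated FLT3 (Tyr589) peptide phosphorylated by the kinase, 30 min reaction at room temperature.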
Chain of human HER2/ErbB2 (P04626 676-1255): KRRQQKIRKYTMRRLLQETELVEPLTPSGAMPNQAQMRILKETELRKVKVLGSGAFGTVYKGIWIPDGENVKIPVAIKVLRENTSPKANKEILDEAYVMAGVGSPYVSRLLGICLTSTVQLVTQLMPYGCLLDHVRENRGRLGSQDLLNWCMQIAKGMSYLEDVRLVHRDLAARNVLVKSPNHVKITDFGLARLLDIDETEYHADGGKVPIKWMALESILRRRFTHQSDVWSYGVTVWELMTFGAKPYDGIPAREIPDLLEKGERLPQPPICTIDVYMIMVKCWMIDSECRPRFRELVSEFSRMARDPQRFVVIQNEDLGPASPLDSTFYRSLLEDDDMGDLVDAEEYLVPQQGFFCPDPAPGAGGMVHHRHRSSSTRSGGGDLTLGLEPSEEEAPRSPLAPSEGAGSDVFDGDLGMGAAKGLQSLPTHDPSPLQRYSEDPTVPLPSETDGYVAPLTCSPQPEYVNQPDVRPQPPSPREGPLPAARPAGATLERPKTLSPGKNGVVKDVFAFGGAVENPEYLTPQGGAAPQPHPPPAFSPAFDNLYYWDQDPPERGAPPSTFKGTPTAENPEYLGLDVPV
Description: as §1, §2

Chain of human VEGFR2 (P35968 807-1356 limits assumed): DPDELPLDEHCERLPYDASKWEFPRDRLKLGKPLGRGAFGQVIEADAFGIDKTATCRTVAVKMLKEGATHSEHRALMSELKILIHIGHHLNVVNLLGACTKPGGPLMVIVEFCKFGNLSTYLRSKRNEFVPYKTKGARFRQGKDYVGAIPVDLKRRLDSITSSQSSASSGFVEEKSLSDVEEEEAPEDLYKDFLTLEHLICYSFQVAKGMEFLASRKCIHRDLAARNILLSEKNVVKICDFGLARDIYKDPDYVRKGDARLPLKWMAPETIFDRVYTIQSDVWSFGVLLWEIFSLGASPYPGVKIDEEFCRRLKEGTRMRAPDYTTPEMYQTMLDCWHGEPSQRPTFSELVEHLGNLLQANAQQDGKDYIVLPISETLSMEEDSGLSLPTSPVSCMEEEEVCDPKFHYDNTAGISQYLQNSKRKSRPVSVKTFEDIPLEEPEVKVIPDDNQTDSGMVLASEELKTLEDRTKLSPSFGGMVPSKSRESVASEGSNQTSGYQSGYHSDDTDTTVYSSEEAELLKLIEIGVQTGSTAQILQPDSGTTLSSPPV

In experiment [1], `C[C@@H](Nc1ncnc2[nH]c(-c3ccc(CN4CCN(CCOCCCCCC(=O)NO)CC4)cc3)cc12)c1ccccc1` [Compound 51, (R)—N-hydroxy-6-(2-(4-(4-(4-(1-phenylethylamino)-7H-pyrrolo[2,3-d]pyrimidin-6-yl)benzyl)piperazin-1-yl)ethoxy)hexanamide] returned an IC50 of less than 0.1 µM.

In the case of `C[C@@H](Nc1ncnc2[nH]c(-c3ccc(CN4CCN(CCCCCCC(=O)NO)CC4)cc3)cc12)c1ccccc1` [Compound 16, (R)—N-Hydroxy-7-(4-(4-(4-(1-phenylethylamino)-7H-pyrrolo[2,3-d]pyrimidin-6-yl)benzyl)piperazin-1-yl)heptanamide], the half-maximal inhibitory concentration (IC50) in experiment [1] is 0.1 to 1 µM; in experiment [2], less than 0.1 µM; in experiment [3], 0.1 to 1 µM; in experiment [4], less than 0.1 µM.

Consider `C[C@@H](Nc1ncnc2[nH]c(-c3ccc(C(=O)NO)cc3)cc12)c1ccc(F)cc1` [Compound 41], for which the IC50 was 0.1 to 1 µM in experiment [1], less than 0.1 µM in experiment [2], 0.1 to 1 µM in experiment [3] and 0.1 to 1 µM in experiment [4].

Regarding `C[C@@H](Nc1ncnc2[nH]c(-c3ccc(CN4CCN(CCCC(=O)NO)CC4)cc3)cc12)c1ccccc1` [Compound 13, (R)—N-Hydroxy-4-(4-(4-(4-(1-phenylethylamino)-7H-pyrrolo[2,3-d]pyrimidin-6-yl)benzyl)piperazin-1-yl)butanamide], the 50% inhibitory concentration (IC50) was 1 to 10 µM in experiment [1], less than 0.1 µM in experiment [2], 0.1 to 1 µM in experiment [3] and less than 0.1 µM in experiment [4].

`C[C@@H](Nc1ncnc2c1cc(-c1ccc(CNCCN)cc1)n2CCCCCC(=O)NO)c1ccccc1` [Compound 63]: the IC50 in experiment [1] is 0.1 to 1 µM.

Take `C[C@@H](Nc1ncnc2[nH]c(-c3ccc(OCCCCCCC(=O)NO)cc3)cc12)c1ccccc1` [Compound 22, (R)—N-hydroxy-7-(4-(4-(1-phenylethylamino)-7H-pyrrolo[2,3-d]pyrimidin-6-yl)phenoxy)heptanamide]: the concentration for half-maximal inhibition (IC50) in experiment [1] was less than 0.1 µM; in experiment [2] it was less than 0.1 µM; in experiment [3], less than 0.1 µM; in experiment [4], 0.1 to 1 µM.

Take `C[C@@H](Nc1ncnc2[nH]c(-c3ccc(C(=O)NO)cc3)cc12)c1ccccc1` [Compound 39, (R)—N-hydroxy-4-(4-(1-phenylethylamino)-7H-pyrrolo[2,3-d]pyrimidin-6-yl)benzamide]: the concentration for half-maximal inhibition (IC50) in experiment [1] is 0.1 to 1 µM; in experiment [2], less than 0.1 µM; in experiment [3] it was 0.1 to 1 µM; in experiment [4], less than 0.1 µM.

For the compound `C[C@@H](Nc1ncnc2[nH]c(-c3ccc(CNCc4ccc(C(=O)NO)cc4)cc3)cc12)c1ccccc1` [Compound 44, (R)—N-hydroxy-4-((4-(4-(1-phenylethylamino)-7H-pyrrolo[2,3-d]pyrimidin-6-yl)benzylamino)methyl)benzamide], the concentration for half-maximal inhibition (IC50) in experiment [1] is 0.1 to 1 µM; in experiment [2], less than 0.1 µM; in experiment [3], 0.1 to 1 µM; in experiment [4], 0.1 to 1 µM.

For the compound `C[C@@H](Nc1ncnc2[nH]c(-c3ccc(OCCNCCCCCCCC(=O)NO)cc3)cc12)c1ccccc1` [Compound 61, (R)—N-hydroxy-8-(2-(4-(4-(1-phenylethylamino)-7H-pyrrolo[2,3-d]pyrimidin-6-yl)phenoxy)ethylamino)octanamide], the figures for the IC50 in experiment [1] and in experiment [4] were 0.1 to 1 µM and less than 0.1 µM, respectively.

In experiment [1], `C[C@@H](Nc1ncnc2c1cc(-c1ccc(N)cc1)n2CCCCCC(=O)NO)c1ccccc1` [Compound 64] showed an IC50 of 0.1 to 1 µM.

As for `C[C@@H](Nc1ncnc2[nH]c(-c3ccc(CN4CCN(CCCCCC(=O)NO)CC4)cc3)cc12)c1ccccc1` [Compound 15, (R)—N-Hydroxy-6-(4-(4-(4-(1-phenylethylamino)-7H-pyrrolo[2,3-d]pyrimidin-6-yl)benzyl)piperazin-1-yl)hexanamide], the IC50 in experiment [1], in experiment [3] and in experiment [4] was 0.1 to 1 µM throughout.

As for `C[C@@H](Nc1ncnc2[nH]c(-c3ccc(OCCNCCCCCC(=O)NO)cc3)cc12)c1ccccc1` [Compound 59, (R)—N-hydroxy-6-(2-(4-(4-(1-phenylethylamino)-7H-pyrrolo[2,3-d]pyrimidin-6-yl)phenoxy)ethylamino)hexanamide], in experiment [1], the half-inhibitory concentration (IC50) was 0.1 to 1 µM.

For the compound `C[C@@H](Nc1ncnc2[nH]c(-c3ccc(C(=O)NCCNCC(=O)NO)cc3)cc12)c1ccccc1` [Compound 28, (R)—N-(2-(2-(Hydroxyamino)-2-oxoethylamino)ethyl)-4-(4-(1-phenylethylamino)-7H-pyrrolo[2,3-d]pyrimidin-6-yl)benzamide], the IC50 in experiment [1] was greater than 10 µM; in experiment [2] it was 0.1 to 1 µM; in experiment [3], 0.1 to 1 µM; in experiment [4], 0.1 to 1 µM.

For `C[C@@H](Nc1ncnc2[nH]c(-c3ccc(CNCC(=O)NO)cc3)cc12)c1ccccc1` [Compound 1, (R)—N-Hydroxy-2-(4-(4-(1-phenylethylamino)-7H-pyrrolo[2,3-d]pyrimidin-6-yl)benzylamino)acetamide], the half-maximal inhibitory concentration (IC50) in experiment [1], in experiment [2] and in experiment [4] was 1 to 10 µM in each case.

`C[C@@H](Nc1ncnc2[nH]c(-c3ccc(CNCCCCCCC(=O)NO)cc3)cc12)c1ccccc1` [Compound 33, (R)—N-hydroxy-7-(4-(4-(1-phenylethylamino)-7H-pyrrolo[2,3-d]pyrimidin-6-yl)benzylamino)heptanamide]: the IC50 in experiment [1] is less than 0.1 µM; in experiment [2], less than 0.1 µM; in experiment [3] it was 0.1 to 1 µM; in experiment [4] it was 0.1 to 1 µM.

For `C[C@@H](Nc1ncnc2[nH]c(-c3ccc(CNCc4ccc(/C=C/C(=O)NO)cc4)cc3)cc12)c1ccccc1` [Compound 45, (R,E)-N-hydroxy-3-(4-((4-(4-(1-phenylethylamino)-7H-pyrrolo[2,3-d]pyrimidin-6-yl)benzylamino)methyl)phenyl)acrylamide], the IC50 in experiment [2], in experiment [3] and in experiment [4] was greater than 10 µM each time.

In the case of `C[C@@H](Nc1ncnc2[nH]c(-c3ccc(CN4CCN(CCCCCC(=O)NO)CC4)cc3)cc12)c1ccc(F)cc1` [Compound 35], the half-maximal inhibitory concentration (IC50) in experiment [1], in experiment [3] and in experiment [4] was 0.1 to 1 µM in each case.

In experiment [1], `C[C@@H](Nc1ncnc2[nH]c(-c3ccc(CN4CCN(CCOCCCCC(=O)NO)CC4)cc3)cc12)c1ccccc1` [Compound 50, (R)—N-hydroxy-5-(2-(4-(4-(4-(1-phenylethylamino)-7H-pyrrolo[2,3-d]pyrimidin-6-yl)benzyl)piperazin-1-yl)ethoxy)pentanamide] came in with a 50% inhibitory concentration (IC50) of 1 to 10 µM.

For `C[C@@H](Nc1ncnc2[nH]c(-c3ccc(NC(=O)Nc4ccc(/C=C/C(=O)NO)cc4)cc3)cc12)c1ccccc1` [Compound 47], in experiment [1], the IC50 lay in the range of 1 to 10 µM.

For the compound `C[C@@H](Nc1ncnc2[nH]c(-c3ccc(OCCCNCCCCCC(=O)NO)cc3)cc12)c1ccccc1` [Compound 62], the IC50 in experiment [1] was in the range of 1 to 10 µM.

For the compound `C[C@@H](Nc1ncnc2[nH]c(-c3ccc(NCCCCCC(=O)NO)cc3)cc12)c1ccccc1` [Compound 66, (R)—N-hydroxy-6-(4-(4-(1-phenylethylamino)-7H-pyrrolo[2,3-d]pyrimidin-6-yl)phenylamino)hexanamide], the concentration for half-maximal inhibition (IC50) in experiment [2], in experiment [3] and in experiment [4] was less than 0.1 µM each time.

Compound `C[C@@H](Nc1ncnc2[nH]c(-c3ccc(CN4CCC(NCCCCCCC(=O)NO)CC4)cc3)cc12)c1ccccc1` [Compound 56, (R)—N-hydroxy-7-(1-(4-(4-(1-phenylethylamino)-7H-pyrrolo[2,3-d]pyrimidin-6-yl)benzyl)piperidin-4-ylamino)heptanamide] displayed an IC50 in experiment [1] of 1 to 10 µM.

As for `C[C@@H](Nc1ncnc2[nH]c(-c3ccc(NC(=O)Nc4ccc(C(=O)NO)cc4)cc3)cc12)c1ccccc1` [Compound 46], the IC50 in experiment [1] was 0.1 to 1 µM.

As for `C[C@@H](Nc1ncnc2c1cc(-c1ccc(C(=O)NCCNCCCCCCC(=O)NO)cc1)n2C)c1ccccc1` [Compound 58], the IC50 fell in the range of 0.1 to 1 µM in experiment [1], 1 to 10 µM in experiment [3] and 0.1 to 1 µM in experiment [4].

As to `C[C@@H](Nc1ncnc2[nH]c(-c3ccc(CN4CCC(NCCCCCCCC(=O)NO)CC4)cc3)cc12)c1ccccc1` [Compound 57, (R)—N-hydroxy-8-(1-(4-(4-(1-phenylethylamino)-7H-pyrrolo[2,3-d]pyrimidin-6-yl)benzyl)piperidin-4-ylamino)octanamide], the IC50 was 0.1 to 1 µM in experiment [1] and less than 0.1 µM in experiment [4].

In experiment [1], `C[C@@H](Nc1ncnc2[nH]c(-c3ccc(CN4CCC(NCCCCCC(=O)NO)CC4)cc3)cc12)c1ccccc1` [Compound 55, (R)—N-hydroxy-6-(1-(4-(4-(1-phenylethylamino)-7H-pyrrolo[2,3-d]pyrimidin-6-yl)benzyl)piperidin-4-ylamino)hexanamide] yielded a 50% inhibitory concentration (IC50) of 1 to 10 µM.

With `C[C@@H](Nc1ncnc2c1cc(-c1ccc(N)cc1)n2CCCCCCC(=O)NO)c1ccccc1` [Compound 65], the IC50 in experiment [1] is less than 0.1 µM.

As for `C[C@@H](Nc1ncnc2[nH]c(-c3ccc(CNCCC(=O)NO)cc3)cc12)c1ccccc1` [Compound 2, (R)—N-Hydroxy-3-(4-(4-(1-phenylethylamino)-7H-pyrrolo[2,3-d]pyrimidin-6-yl)benzylamino)-propanamide], the IC50 in experiment [1] is greater than 10 µM; in experiment [3] it was 0.1 to 1 µM.

A word on the IC50: it is the point on the concentration scale where inhibition reaches its midpoint. A higher IC50 goes with weaker potency in that assay.
